Reference: US6372739B1, “Compounds and methods for modulation of estrogen receptors” (Signal Pharmaceuticals, Inc., priority 1998, dated 2002)
Structures can show the parent of a compound that is named as a salt. Where two headings read alike, the source gives them in different places.

Tests used:
[1] = 3-day immature rat uterine bioassay; details: s.c.
IL-6 = assay: Human bone cell co-culture system, IL-6 production; format: cell-based
Experimental: The generation of osteoblastic cells from normal adult femoral travecular bone from patients without evidence of metabolic bone disease was carried out as previously described (Kung Sutherland et al., Osteoporosis International 5:334-343, 1995; Wong et al., J Bone Miner 5:803-813, 1990). Bone fragments were cleaned of adherent tissue and blood and cultured for 4 weeks in medium containing Ham's F12 supplemented with 28 mM HEPES, pH 7.4, 10% FCS, 1.1 mM CaCl2, 2 mM glutamine, and 1% antibiotic-antimycotic agent. Upon confluency, the cells were harvested and immortalized using a retroviral vector (pLXSN) containing the neomycin resistance gene and the human papillomaviral (HPV18) E6 and E7 concogenes (International Journal of Oncology 6:167-174, 1995). The immortalized osteoblastic cells were selected in medium containing G418 (600 μg/ml).
The human U937 moncytic cell line (cloned from the commercially available cells by serial dilution) was maintained in RPMI 1640 medium containing 10% FCS and 1% antibiotic-antimycotic agent.
The co-culture system was established as follows. Human osteoblastic cells were plated in 96-well dishes at a density of 5×10^3 cells/well. U937 cells in RPMI medium (5×10^4 cells/well) were layered over the osteoblasts. The formation of osteoclast-like cells was induced with 100 nM PMA. […]

[2] = 28-day uterine bioassay in ovariectomized rats; details: rat, in vivo
Experimental: All three componds were administered daily by s.c. injection. Estrogen prevented the uterine weight loss caused by ovariectomy by increasing the uterine weight by 550%. […] Raloxifene.HCl caused about a 70% increase in uterine weight which has been previously reported (Grese et al., supra; Ashby et al., supra). […] Thus, this compound has significant potential for the prevention and/or treatment of cancer and osteoporosis, as well as cardiovascular diseases and neurodegenerative diseases such as Alzheimer's disease.

human recombinant ER-β = human recombinant ER-β (Homo sapiens, UniProt Q92731); assay: Solid phase ER binding assay (3H-estradiol competition), ER-β
human recombinant ER-α = target: T1, human recombinant ER-α (Homo sapiens, UniProt P03372); assay: Solid phase ER binding assay (3H-estradiol competition), ER-α; details: HCl salt; similar to estradiol
T1 sequence (P03372 1-595): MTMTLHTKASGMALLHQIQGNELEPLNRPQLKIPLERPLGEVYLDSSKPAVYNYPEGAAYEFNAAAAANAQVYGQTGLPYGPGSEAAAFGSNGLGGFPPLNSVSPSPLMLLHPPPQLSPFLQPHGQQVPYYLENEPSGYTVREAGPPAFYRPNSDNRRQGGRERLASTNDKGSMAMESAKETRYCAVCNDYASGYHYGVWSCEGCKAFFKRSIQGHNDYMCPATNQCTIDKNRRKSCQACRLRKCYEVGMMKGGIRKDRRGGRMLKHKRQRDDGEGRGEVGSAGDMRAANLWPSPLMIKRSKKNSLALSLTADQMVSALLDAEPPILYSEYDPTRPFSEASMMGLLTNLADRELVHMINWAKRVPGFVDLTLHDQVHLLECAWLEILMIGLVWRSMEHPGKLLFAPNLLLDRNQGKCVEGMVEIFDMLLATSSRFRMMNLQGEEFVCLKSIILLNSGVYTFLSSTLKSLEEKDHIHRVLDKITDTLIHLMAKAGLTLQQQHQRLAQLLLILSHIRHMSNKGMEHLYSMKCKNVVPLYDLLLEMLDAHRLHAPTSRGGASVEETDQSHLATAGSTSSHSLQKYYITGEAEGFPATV

GM-CSF = assay: Human bone cell co-culture system, GM-CSF production; format: cell-based; details: co-culture system of Example 8
Experimental: The co-culture system was established as follows. Human osteoblastic cells were plated in 96-well dishes at a density of 5×10^3 cells/well. U937 cells in RPMI medium (5×10^4 cells/well) were layered over the osteoblasts. The formation of osteoclast-like cells was induced with 100 nM PMA. To determine the effects of compounds or the neutralizing antibodies to IL-6 (Sigma) and GM-CSF (Pharmingen) on the formation of osteoclast-like cells, the compounds or the antibodies were added 30 minutes prior to the addition of PMA. The cultures were stopped after 96 hrs and processed for histochemical or immunohistochemical analyses.

Sequence of human recombinant ER-β (Q92731 whole entry): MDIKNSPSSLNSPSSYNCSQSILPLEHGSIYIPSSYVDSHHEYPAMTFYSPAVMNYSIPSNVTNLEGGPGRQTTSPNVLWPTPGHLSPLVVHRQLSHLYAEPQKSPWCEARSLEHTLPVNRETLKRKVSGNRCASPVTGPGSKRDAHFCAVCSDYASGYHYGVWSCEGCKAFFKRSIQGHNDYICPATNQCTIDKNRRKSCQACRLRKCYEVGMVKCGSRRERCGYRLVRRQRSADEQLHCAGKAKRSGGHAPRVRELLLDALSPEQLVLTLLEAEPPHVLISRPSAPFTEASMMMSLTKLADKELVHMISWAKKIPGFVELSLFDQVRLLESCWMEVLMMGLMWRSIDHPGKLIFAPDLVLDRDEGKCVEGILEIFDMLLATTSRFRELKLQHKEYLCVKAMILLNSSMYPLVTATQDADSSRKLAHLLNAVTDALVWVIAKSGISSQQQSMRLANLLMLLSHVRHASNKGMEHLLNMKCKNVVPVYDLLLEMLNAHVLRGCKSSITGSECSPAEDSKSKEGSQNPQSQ

O=C(c1ccc(OCCN2CCCCC2)cc1)c1c(-c2ccc(O)cc2)sc2cc(O)ccc12 [Raloxifene HCl]
shape of dose response, uterine weight [1]: bell-shaped dose response | increase in uterine weight ([1]; 1 mg/kg dose): up to 50%

O=c1oc2cc(O)ccc2c(Cc2ccc(OCCN3CCCCC3)cc2)c1-c1ccccc1 [Compound No. 1, 3-Phenyl-4-[4-(2-{piperidin-1-yl})ethoxy]-benzyl-7-hydroxycoumarin]
increase in uterine weight [1]: ~30% | shape of dose response, uterine weight [1]: bell-shaped dose response | IC50 (IL-6; U-937, human osteoblast/U937 co-culture, PMA induced, read-out: IC50 with respect to IL-6): 10 nM | increase in uterine weight ([2]; female, sc, 28 day): ~40% | uterine liability [2]: does not exhibit significant uterine liability | binding affinity to ER-β (in words) (human recombinant ER-β; HCl salt, similar to estradiol): high affinity | Ki (human recombinant ER-β; competition with 30 nM 3H-estradiol, room temperature, 1 hour, average of at least 3 experiments, read-out: Solid Phase ER Binding Ki, ER-β): 7.3 nM | binding affinity to ER-α (in words) (human recombinant ER-α): high affinity

C[C@]12CC[C@@H]3c4ccc(O)cc4CC[C@H]3[C@@H]1CC[C@@H]2O [Estradiol, 17β-estradiol]
increase in uterine weight [1]: 4.5 fold | effect on production of GM-CSF (GM-CSF): reduced the production of GM-CSF | effect on production of IL-6 (IL-6; co-culture system of Example 8): suppress the production of IL-6

O=c1oc2cc(O)ccc2c(Cc2ccc(OCCN3CCCCC3)cc2)c1-c1ccccc1 (as salt: HCl) [Compound No. 1, 3-Phenyl-4-[4-(2-{piperidin-1-yl})ethoxy]-benzyl-7-hydroxycoumarin]
melting point: 160 to 161 °C

CCN(CC)CCOc1ccc(-c2c(-c3ccccc3)c(=O)oc3ccccc23)cc1 [L-20, reference compound]
Ki (human recombinant ER-β; ER binding assay of Example 14, read-out: ER Binding Assay ER-β (Ki)): > 10000 nM

COc1ccc2c(Cc3ccc(OCCN4CCCCC4)cc3)c(-c3ccccc3)c(=O)oc2c1 [Example 4, 3-Phenyl-4-[4-(2-{piperin-1-yl})ethoxy]-benzyl-7-methoxycoumarin]
melting point: 171 to 172 °C
